# Biological target: T1, rhJAK3 (Homo sapiens, UniProt P52333)
# T1 construct: recombinant purified GST-tagged catalytic domain for each enzyme; purchased Invitrogen PV3855
# Test: JAK Biochemical HTRF Assay (JAK3)
# Details: recombinant purified GST-tagged catalytic domain, HTRF format, [ATP] 1.7 μM; read-out: JAK3 IC50
# T1 sequence (P52333 822-1111 limits assumed): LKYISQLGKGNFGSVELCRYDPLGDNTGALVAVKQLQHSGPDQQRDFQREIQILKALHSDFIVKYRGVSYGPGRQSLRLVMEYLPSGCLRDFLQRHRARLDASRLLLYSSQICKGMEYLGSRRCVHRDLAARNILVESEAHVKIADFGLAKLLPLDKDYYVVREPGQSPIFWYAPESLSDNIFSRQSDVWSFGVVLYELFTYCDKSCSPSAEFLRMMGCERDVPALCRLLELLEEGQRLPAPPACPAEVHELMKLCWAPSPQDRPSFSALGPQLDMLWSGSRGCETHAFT
row,Compound,IC50 [nM]
1,"C[C@@H](Nc1cncc(-c2c[nH]c3ncc(CN4CCC(F)C4)cc23)n1)C(=O)NCC(F)(F)F (stereo partly drawn) [Example 15-8, N^2-(6-{5-[(3-fluoropyrrolidin-1-yl)-methyl]-1H-pyrrolo[2,3-b]pyridin-3-yl}-pyrazin-2-yl)-N-(2,2,2-trifluoroethyl)-D-alaninamide]",10 to 100
2,"C[C@@H](Nc1cncc(-c2c[nH]c3ncc(-c4cnn5c4CCC5)cc23)n1)C(=O)NCC(F)(F)F [Example 15-9, N^2-{6-[5-(5,6-dihydro-4H-pyrrolo[1,2-b]pyrazol-3-yl)-1H-pyrrolo[2,3-b]-pyridin-3-yl]pyrazin-2-yl}-N-(2,2,2-trifluoroethyl)-D-alaninamide]",≤ 1
3,"C[C@@H](Nc1cncc(-c2c[nH]c3ncc(-c4cccc(N5CCOCC5)c4)cc23)n1)C(=O)NCC(F)(F)F [Example 15-10, N^2-{6-[5-(3-morpholin-4-ylphenyl)-1H-pyrrolo[2,3-b]pyridin-3-yl]pyrazin-2-yl}-N-(2,2,2-trifluoroethyl)-D-alaninamide]",≤ 1
4,"CC(c1cccc(-c2cnc3[nH]cc(-c4cncc(N[C@H](C)C(=O)NCC(F)(F)F)n4)c3c2)c1)N1CCCC1 (stereo partly drawn) [Example 15-11, N^2-(6-{5-[3-(1-pyrrolidin-1-ylethyl)-phenyl]-1H-pyrrolo[2,3-b]pyridin-3-yl}pyrazin-2-yl)-N-(2,2,2-trifluoroethyl)-D-alaninamide]",≤ 1
5,"C[C@@H](Nc1cncc(-c2c[nH]c3ncc(-c4cccc(CN5CCOCC5)c4)cc23)n1)C(=O)NCC(F)(F)F [Example 15-12, N^2-(6-{5-[3-(morpholin-4-yl-methyl)phenyl]-1H-pyrrolo[2,3-b]-pyridin-3-yl}pyrazin-2-yl)-N-(2,2,2-trifluoroethyl)-D-alaninamide]",≤ 1
6,"C[C@@H](Nc1cncc(-c2c[nH]c3ncc(-c4ccccc4CN(C)C)cc23)n1)C(=O)NCC(F)(F)F [Example 15-13, N^2-[6-(5-{2-[(dimethylamino)methyl]-phenyl}-1H-pyrrolo(2,3-b]pyridin-3-yl)pyrazin-2-yl]-N-(2,2,2-trifluoroethyl)-D-alaninamide]",1 to 10
7,"C[C@@H](Nc1cncc(-c2c[nH]c3ncc(-c4ccccc4OC(F)(F)F)cc23)n1)C(=O)NCC(F)(F)F [Example 15-14, N-(2,2,2-trifluoroethyl)-N^2-(6-{5-[2-(trifluoromethoxy)phenyl]-1H-pyrrolo[2,3-b]pyridin-3-yl}pyrazin-2-yl)-D-alaninamide]",10 to 100
8,"C[C@@H](Nc1cncc(-c2c[nH]c3ncc(C4=CCOCC4)cc23)n1)C(=O)NCC(F)(F)F [Example 15-15, N^2-{6-[5-(3,6-dihydro-2H-pyran-4-yl)-1H-pyrrolo[2,3-b]pyridin-3-yl]pyrazin-2-yl}-N-(2,2,2-trifluoroethyl)-D-alaninamide]",≤ 1
9,"C[C@@H](Nc1cncc(-c2c[nH]c3ncc(C4=CCCOC4)cc23)n1)C(=O)NCC(F)(F)F [Example 15-16, N^2-{6-[5-(5,6-dihydro-2H-pyran-3-yl)-1H-pyrrolo[2,3-b]pyridin-3-yl]pyrazin-2-yl}-N-(2,2,2-trifluoroethyl)-D-alaninamide]",≤ 1
10,"C[C@@H](Nc1cncc(-c2c[nH]c3ncc(-c4ccc(N5CCCC5)cc4)cc23)n1)C(=O)NCC(F)(F)F [Example 15-17, N^2-{6-[5-(4-pyrrolidin-1-ylphenyl)-1H-pyrrolo[2,3-b]pyridin-3-yl]pyrazin-2-yl}-N-(2,2,2-trifluoroethyl)-D-alaninamide]",≤ 1
11,"COc1cncc(-c2cnc3[nH]cc(-c4cncc(N[C@H](C)C(=O)NCC(F)(F)F)n4)c3c2)c1 [Example 15-18, N^2-{6-[5-(5-methoxypyridin-3-yl)-1H-pyrrolo[2,3-b]pyridin-3-yl]pyrazin-2-yl}-N-(2,2,2-trifluoroethyl)-D-alaninamide]",≤ 1
12,"C[C@@H](Nc1cncc(-c2c[nH]c3ncc(-c4cncc(C#N)c4)cc23)n1)C(=O)NCC(F)(F)F [Example 15-19, N^2-{6-[5-(5-cyanopyridin-3-yl)-1H-pyrrolo[2,3-b]pyridin-3-yl]pyrazin-2-yl}-N-(2,2,2-trifluoroethyl)-D-alaninamide]",≤ 1
13,"C[C@@H](Nc1cncc(-c2c[nH]c3ncc(-c4cccnc4F)cc23)n1)C(=O)NCC(F)(F)F [Example 15-20, N^2-{6-[5-(2-fluoropyridin-3-yl)-1H-pyrrolo[2,3-b]pyridin-3-yl)pyrazin-2-yl}-N-(2,2,2-trifluoroethyl)-D-alaninamide]",≤ 1
14,"CC(C)(Nc1cncc(-c2c[nH]c3ncc(C4CC4)cc23)n1)C(=O)NCC(F)(F)F [Example 15-21, N2-[6-(5-cyclopropyl-1H-pyrrolo[2,3-b]pyridin-3-yl)pyrazin-2-yl]-2-methyl-N-(2,2,2-trifluoroethyl)alaninamide]",≤ 1
15,"CC(C)[C@@H](Nc1cncc(-c2c[nH]c3ncc(F)cc23)n1)C(=O)NCC(F)(F)F [Example 16-1, N^2-[6-(5-fluoro-1H-pyrrolo[2,3-b]pyridin-3-yl)pyrazin-2-yl]-N-(2,2,2-trifluoroethyl)-D-valinamide]",1 to 10
16,"CC(C)[C@@H](Nc1cncc(-c2c[nH]c3ncc(C#N)cc23)n1)C(=O)NCC(F)(F)F [Example 16-2, N^2-[6-(5-cyano-1H-pyrrolo[2,3-b]pyridin-3-yl)pyrazin-2-yl]-N-(2,2,2-trifluoroethyl)-D-valinamide]",≤ 1
17,"COC(=O)c1cnc2[nH]cc(-c3cncc(N[C@@H](C(=O)NCC(F)(F)F)C(C)C)n3)c2c1 [Example 16-3, Methyl 3-[6-({(2R)-3-methyl-1-oxo-1-[(2,2,2-trifluoroethyl)amino]butan-2-yl}-amino)pyrazin-2-yl]-1H-pyrrolo[2,3-b]-pyridine-5-carboxylate]",1 to 10
18,"CC(C)(Nc1cncc(-c2c[nH]c3ncc(F)cc23)n1)C(=O)NCC(F)(F)F [Example 16-5, N^2-[6-(5-fluoro-1H-pyrrolo[2,3-b]pyridin-3-yl)pyrazin-2-yl]-2-methyl-N-(2,2,2-trifluoroethyl)alaninamide]",≤ 1

# Same assay, conditions: recombinant purified GST-tagged catalytic domain, HTRF format, [ATP] 1.7 μM; read-out: rhJAK3 IC50
row,Compound,IC50 [nM]
1,"(2R)-1-[6-(5-chloro-1H-pyrrolo[2,3-b]- pyridin-3-yl)pyrazin-2-yl]-N-(2,2,2- trifluoroethyl)piperazine-2-carboxamide [Example 4-1]",10 to 100

# — patent US20130040933A1, “AZAINDOLES AS JANUS KINASE INHIBITORS” (priority 2010, published 2013)
